# Source: patent US8846619B2, “Artificial oxygen transport protein” (The Trustees of the University of Pennsylvania, priority 2009, dated 2014)
# Like-named read-outs stand apart in the source and are kept apart here. Ends that are not written are not given here.
# B1: Construct 7: SEQ ID NO:11; single chain four-helix bundle peptide (protein)
# chain: GMTPEQIWKQHEDALQKFEDALNQFEELKQLGGSGSGSGGEIWKQHEDALQKFEDALNQFEELKQLGGSGGSGGSGGEIWKQHEDALQKFEDALNQFEELKQLGGSGSGSGGEIWKQHEDALQKFEDALNQFEELKQL
# B2: Construct 10: SEQ ID NO:14; single chain four-helix bundle with CXXCH insert, covalently bound heme C (protein)
# chain: GMTPEQIWKQHEDALQKFEDALNQFEELKQLGGSGSGSGGEICKCHEDALQKFEDALNQFEELKQLGGSGGSGGSGGEIWKQHEDALQKFEDALNQFEELKQLGGSGSGSGGEIWKQHEDALQKFEDALNQFEELKQL
# modifications: covalently bound heme C
# B3: Neuroglobin (protein, UniProt Q9NPG2 1-151, looked up)
# Neuroglobin: MERPEPELIRQSWRAVSRSPLEHGTVLFARLFALEPDLLPLFQYNCRQFSSPEDCLSSPEFLDHIRKVMLVIDAAVTNVEDLSSLEEYLASLGRKHRAVGVKLSSFSTVGESLLYMLEKCLGPAFTPATRAAWSQLYGAVVQAMSRGWDGE
# B4: Construct 6: cystine derivative of SEQ ID NO:1; four-helix bundle oxygen transport protein (protein)
# chain: GEIWKQHEDALQKFEEALNQFEDLKQLGGSGCGSGGEIWKQHEDALQKFEEALNQFEDLKQL
# modifications: cystine derivative
# notes: four-helix bundle oxygen transport protein
# Columns and labels:
# [1] = Heme binding to the constructs; settings: two-heme variants, read-out: heme binding affinities
# [2] = O2 binding kinetics and oxy-ferrous heme formation/stability (stopped-flow; low-temperature CO/O2 ligand exchange); settings: for oxy-ferrous heme yield: −15° C., exposed to CO, then illuminated to exchange ligand for O2; for O2 binding / oxy-ferrous heme formation (in words): reduced (ferrous) heme protein with O2; for stabilization of the oxy-ferrous heme: effect of loop configuration
# Description: (§1) Predominantly mono-exponential binding kinetics of O2 and CO with the ferrous heme B in Construct 6 were followed spectroscopically in rapid stopped-flow mixing over gas concentrations from 2% to 50% saturation at 15° C. using an Olis RSM 1000 spectrometer (Bogart, Ga.) that scans both the alpha band and Soret band absorptions 1,000 times a second, followed by SVD analysis of the kinetic components. The dissociation rate of the CO complex was determined by competition with ferricyanide using a range of ferricyanide concentrations according to the ferric heme trapping method described previously.
# Preparations of ferrous heme synthetic proteins in CO saturated 30% ethylene glycol borate buffer at pH 9.0 were stable to ligand exchange on a timescale of several minutes in the dark at −15° C. This allowed spectra such as those shown in FIG. 2 to be prepared by re-equilibration with O2 or O2/CO gas mixtures, followed by photolysis by halogen lamp illumination for several seconds to initiate rapid O2 binding, as described previously.
# In fact, none of the artificial hemes proteins examined above were able to bind this gas stably at room temperature. […] Constructs 2, 3, 4 and 5 all include the glutamate-based helical strain, which weakens the histidine ligation and allows competition from other ligands. By first exposing these heme proteins to CO and then illuminating at a low temperature to initiate ligand exchange for O2, as was done previously with cytochrome oxidase, each formed an oxy-ferrous heme at near 100% yield at −15° C. The probable reason for room temperature instability was the access of water and protons to the heme-binding site, which facilitates electron transfer from ferrous heme to oxygen. This is clear from mutant studies of globins and the relative stability of the oxy-ferrous heme in chemical systems in water-free solvents.
# [3] = literature value, cited from earlier work
# [4] = literature value, cited from earlier work; remark: listed apart in the source
# [5] = Hydrogen isotope (H/D) exchange protection by NMR; format: physicochemical; settings: pH 7 and 25° C.
# Text: To engineer water exclusion, the potentially culpable protein motion was constrained. […] Indeed, Construct 2 could be modified to introduce large-scale syn-anti flipping. To constrain motion, the loops were reconfigured to link the helices across the most mobile interface. This also allowed the loops to be linked into a monomeric “candelabra” structure, further constraining motion (Construct 6 in FIG. 1). NMR confirmed the water-restricting effects of loop reconfiguration and monomerization. Hydrogen isotope (H/D) analysis of hydrogen exchange protection factors of Constructs 4 and 6 at pH 7 and 25° C.
# [6] = Potentiometric titration (oxidation-reduction midpoint potential); format: physicochemical
# [7] = literature value; cited from earlier work
# [8] = CO binding and release kinetics (stopped-flow mixing, flash photolysis, ferricyanide competition); settings: stopped-flow with CO
# Description: as §1
# CO rebinding after photolysis by a frequency-doubled YAG laser at 532 nm, with a ˜1-ns pulse width (FIG. 3C), was multi-exponential, a characteristic signature of human neuroglobins. Detailed analysis of time-resolved spectra in the flash experiments was consistent with a rapid exponential phase due to a change in pentacoordinate heme conformation (FIG. 3B), similar to that reported for myoglobin [46]. […]
# Saturation of the observed CO binding rate allowed estimates of the opening and closing rates. […] Table 1 presents the kinetic constants (also shown in FIG. 3A) and equilibrium binding constants that have been determined for Construct 6 and contrasts them with several natural oxygen-binding proteins. […]
# [9] = heme B, cited from earlier work
# [10] = not in parentheses, read-out: KdO2
# [11] = not in parentheses, read-out: KdCO
molecule,measurement,setting,value
"CGGGEIWKQFEEALKKLFAFFFILPFIIMAIAMVHLLFLFGEGL [Construct 15, AP6 with histidines at positions 10 and 21 mutated to phenylalanine]",Kd,[1]; tighter site,100 nM
same,Kd,[1]; weaker site,4500 nM
Construct 3: cystine derivative of SEQ ID NO:7 (CGGGEIWKLHEEFLKKFEELLKLHEERLKKL; also: cystine derivative),oxy-ferrous heme yield,[2],~100%
Construct 2: cystine derivative of SEQ ID NO:6 (CGGGELWKLHEELLKKFEELLKLHEERLKKL; also: cystine derivative),O2 binding / oxy-ferrous heme formation (in words),[2],proceeded directly and rapidly to the oxidized form
same,oxy-ferrous heme yield,[2],~100%
Construct 5: cystine derivative of SEQ ID NO:9 (CGGGEIWKQHEDALQKFEDALNQFEELKQL; also: cystine derivative),stabilization of the oxy-ferrous heme,[2],not to be stabilized
same,oxy-ferrous heme yield,[2],~100%
Myoglobin,kO2 off,[3],12 s⁻¹
same,KdO2/KdCO,[3]; not in parentheses,23
same,kO2 on,[3]; not in parentheses,1.4e+07 M⁻¹ s⁻¹
same,Kd,[3]; [10],860 nM
same,kCO off,[4],0.019 s⁻¹
same,kCO on,[4]; not in parentheses,500000 M⁻¹ s⁻¹
same,Kd,[4]; [11],37 nM
Construct 4: cystine derivative of SEQ ID NO:8 (CGGGEIWKQHEEALKKFEEALKQFEELKKL; also: cystine derivative),time to complete water-mediated proton exchange,[5],≤ 15 min
same,oxy-ferrous heme yield,[2],~100%
Human haemoglobin,kO2 off,[3],15 s⁻¹
same,KdO2/KdCO,[3]; not in parentheses,190
same,kO2 on,[3]; not in parentheses,1.9e+07 M⁻¹ s⁻¹
same,Kd,[3]; [10],770 nM
same,kCO off,[4],0.009 s⁻¹
same,kCO on,[4]; not in parentheses,2.2e+06 M⁻¹ s⁻¹
same,Kd,[4]; [11],4 nM
"CGGGEIWKQFEEALKKLFAFHFILPFIIMAIAMVFLLFLFGEGL [Construct 14, AP6 with histidines at positions 10 and 35 mutated to phenylalanine]",Kd,[1]; tighter site,200 to 500 nM
same,Kd,[1]; weaker site,1000 to 3000 nM
Micro-peroxidase,kCO off,[4],0.01 s⁻¹
same,kCO on,[4]; not in parentheses,2e+07 M⁻¹ s⁻¹
same,Kd,[4]; [11],0.5 nM
CGGGEIWKQHEEALKKLFAFFFILPFIIMAIAMVFLLFLFGEGL [Construct 13],Kd,[1]; tighter site,50 to 200 nM
same,Kd,[1]; weaker site,1000 to 4000 nM
same,O2 binding / oxy-ferrous heme formation (in words),[2],able to bind O2
Ascaris haemoglobin,kO2 off,[3],0.004 s⁻¹
same,KdO2/KdCO,[3]; not in parentheses,0.03
same,kO2 on,[3]; not in parentheses,1.5e+06 M⁻¹ s⁻¹
same,Kd,[3]; [10],3 nM
same,kCO off,[4],0.018 s⁻¹
same,kCO on,[4]; not in parentheses,200000 M⁻¹ s⁻¹
same,Kd,[4]; [11],90 nM
B1,O2 binding / oxy-ferrous heme formation (in words),[2],retained the O2 binding functionality of Construct 6
B2,Em (midpoint potential),"[6]; covalently bound c-type heme, pH 9",−232 mV
same,O2 binding / oxy-ferrous heme formation (in words),[2],bound molecular oxygen
B3,kO2 off,[3],0.8 s⁻¹
same,KdO2/KdCO (apparent),[3]; in parentheses: apparent,(15)
same,kO2 on (apparent),[3]; in parentheses: apparent,(0.56) μM^−1s^−1
same,Kd,"[3]; in parentheses: apparent, read-out: KdO2 (apparent)",1400 nM
same,kO2 on,[3]; not in parentheses,2.5e+08 M⁻¹ s⁻¹
same,Kd,[3]; [10],3.2 nM
same,kHis off,[7],4.5 s⁻¹
same,kHis on,[7],"2,000 s^−1"
same,kCO off,[4],0.014 s⁻¹
same,kCO on (apparent),[4]; in parentheses: apparent,(0.15) μM^−1s^−1
same,Kd,"[4]; in parentheses: apparent, read-out: KdCO (apparent)",93 nM
same,kCO on,[4]; not in parentheses,6.5e+07 M⁻¹ s⁻¹
same,Kd,[4]; [11],0.21 nM
B4,oxidation-reduction midpoint potential at pH 8 (Em8),"[6]; bound heme A, pH 8, versus normal hydrogen electrode (NHE)",−100 mV
same,Em8 of bound heme A more positive than heme B,[6]; heme A versus heme B,about 200 mV
same,half time of carboxy-ferrous heme formation,[8],400 ms
same,stability of carboxy-ferrous heme species,[8],indefinitely stable
same,timescale of exchange of core residue backbone amides,[5],several hours
same,O2 on-rate compared with human neuroglobin,[2],~100 times slower
same,net discrimination favoring O2 binding over CO binding,[2],tenfold
same,stabilization of the oxy-ferrous heme,[2],stabilized by looping together helices not linked by heme
same,persistence of oxy-ferrous heme A before electron transfer,[2]; heme A,about half a minute
same,duration of stability of the oxy-ferrous state,"[2]; heme B, before electron transfer from ferrous heme to O2",tens of seconds
same,O2 binding / oxy-ferrous heme formation (in words),[2],transformation of the reduced heme to the oxy-ferrous state
same,Kd,"[9]; first heme, read-out: dissociation constant (Kd) for binding of the first heme",< 1 nM
same,Kd,"[9]; second heme, read-out: dissociation constant (Kd) for binding of the second heme",50 nM
